Test results published in patent US11998532B1 (priority 2023, dated 2024).
Converted amounts (≈) assume the structure as drawn.

Each molecule was assayed on Susceptible (H37Rv) strain of Mycobacterium tuberculosis (assay: Resazurin Microplate Assay (REMA), anti-tubercular activity, H37Rv). Conditions: 192 h, read-out: MIC Susceptible (H37Rv).
Type: cell-based

SMILES	MIC [µg/mL]
COc1ccc(Cl)cc1-n1ncc(-c2nnc(-c3ccc(Cl)cc3)o2)c1C [Compound 7a, 2-(1-(5-Chloro-2-methoxyphenyl)-5-methyl-1H-pyrazol-4-yl)-5-(4-chlorophenyl)-1,3,4-oxadiazole]	4 (≈ 9.97 µM)
COc1ccc(Cl)cc1-n1ncc(-c2nnc(-c3ccc(F)cc3)o2)c1C [Compound 7b, 2-(1-(5-Chloro-2-methoxyphenyl)-5-methyl-1H-pyrazol-4-yl)-5-(4-fluorophenyl)-1,3,4-oxadiazole]	4 (≈ 10.4 µM)
COc1ccc(Cl)cc1-n1ncc(-c2nnc(-c3ccc(C)c(Br)c3)o2)c1C [Compound 7c, 2-(3-Bromo-4-methylphenyl)-5-(1-(5-chloro-2-methoxyphenyl)-5-methyl-1H-pyrazol-4-yl)-1,3,4-oxadiazole]	16 (≈ 34.8 µM)
COc1ccc(Cl)cc1-n1ncc(-c2nnc(-c3ccccc3)o2)c1C [Compound 7d, 2-(1-(5-Chloro-2-methoxyphenyl)-5-methyl-1H-pyrazol-4-yl)-5-phenyl-1,3,4-oxadiazole]	16 (≈ 43.6 µM)
COc1ccc(Cl)cc1-n1ncc(-c2nnc(-c3ccc(Br)cc3)o2)c1C [Compound 7e, 2-(4-Bromophenyl)-5-(1-(5-chloro-2-methoxyphenyl)-5-methyl-1H-pyrazol-4-yl)-1,3,4-oxadiazole]	8 (≈ 17.9 µM)
COc1ccc(Cl)cc1-n1ncc(-c2nnc(-c3ccc(Br)c(C)c3)o2)c1C [Compound 7f, 2-(4-Bromo-3-methylphenyl)-5-(1-(5-chloro-2-methoxyphenyl)-5-methyl-1H-pyrazol-4-yl)-1,3,4-oxadiazole]	32 (≈ 69.6 µM)
COc1ccc(Cl)cc1-n1ncc(-c2nnc(-c3cccc(F)c3)o2)c1C [Compound 7g, 2-(1-(5-Chloro-2-methoxyphenyl)-5-methyl-1H-pyrazol-4-yl)-5-(3-fluorophenyl)-1,3,4-oxadiazole]	8 (≈ 20.8 µM)
COc1ccc(Cl)cc1-n1ncc(-c2nnc(-c3cc(Cl)cc(Cl)c3)o2)c1C [Compound 7h, 2-(1-(5-Chloro-2-methoxyphenyl)-5-methyl-1H-pyrazol-4-yl)-5-(3,5-dichlorophenyl)-1,3,4-oxadiazole]	4 (≈ 9.18 µM)
COc1ccc(Cl)cc1-n1ncc(-c2nnc(-c3ccc(Cl)c(Cl)c3)o2)c1C [Compound 7i, 2-(1-(5-Chloro-2-methoxyphenyl)-5-methyl-1H-pyrazol-4-yl)-5-(3,4-dichlorophenyl)-1,3,4-oxadiazole]	16 (≈ 36.7 µM)
COc1ccc(Cl)cc1-n1ncc(-c2nnc(-c3ccc(C)c([N+](=O)[O-])c3)o2)c1C [Compound 7j, 2-(1-(5-Chloro-2-methoxyphenyl)-5-methyl-1H-pyrazol-4-yl)-5-(4-methyl-3-nitrophenyl)-1,3,4-oxadiazole]	32 (≈ 75.1 µM)
